# Data as given in patent US11697646B2, “Triazole N-linked carbamoyl cyclohexyl acids as LPA antagonists” (BRISTOL-MYERS SQUIBB COMPANY, priority 2017, dated 2023).
# Molecular target: T1, human LPA1 (Homo sapiens, UniProt Q92633)
# T1 construct: expressed in transfected cells; host or cells: Chinese hamster ovary (CHO) cells
# Test: LPA1 functional antagonist assay (calcium flux)
# Format: cell-based
# Conditions: human LPA1 functional antagonist assay; read-out: hLPA1 IC50
# Protocol: The effectiveness of compounds of the present invention as LPA1 inhibitors can be determined in an LPA1 functional antagonist assay as follows:
# The cells were then equilibrated to room temperature for 30 minutes before the assay. […] IC50 values were determined by fitting data to a 4-parameter logistic equation (GraphPad Prism, San Diego Calif.).
# T1 sequence (Q92633 whole entry): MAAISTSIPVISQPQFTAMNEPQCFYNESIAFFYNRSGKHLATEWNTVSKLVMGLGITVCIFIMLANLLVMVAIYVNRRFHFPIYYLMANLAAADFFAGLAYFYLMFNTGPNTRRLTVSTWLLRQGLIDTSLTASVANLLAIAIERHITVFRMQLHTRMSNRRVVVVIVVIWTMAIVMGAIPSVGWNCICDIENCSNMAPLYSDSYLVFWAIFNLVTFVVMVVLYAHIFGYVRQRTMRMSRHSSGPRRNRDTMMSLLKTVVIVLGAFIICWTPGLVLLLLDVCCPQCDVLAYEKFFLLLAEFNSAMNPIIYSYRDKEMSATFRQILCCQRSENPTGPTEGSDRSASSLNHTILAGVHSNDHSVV
row,Structure (SMILES),IC50 [nM]
1,"CCC[C@H](C)OC(=O)NCc1c(-c2ccc(O[C@H]3CCC[C@H](C(=O)O)C3)c(C)n2)nnn1C [Example 165, (1S,3S)-3((2-methyl-6-(1-methyl-5-((((((S)-pentan-2-yl)oxy)carbonyl)amino)methyl)-1H-1,2,3-triazol-4-yl)pyridin-3-yl)oxy)cyclohexane-1-carboxylic acid]",34
2,"Cc1nc(-c2nnn(C)c2CNC(=O)OCCCCC(F)(F)F)ccc1O[C@H]1CCC[C@H](C(=O)O)C1 [Example 166, (1S,3S)-3-((2-methyl-6-(1-methyl-5-(((((5,5,5-trifluoropentyl)oxy)carbonyl)amino)methyl)-1H-1,2,3-triazol-4-yl)pyridin-3-yl)oxy)cyclohexane-1-carboxylic acid]",121
3,"Cc1nc(-c2nnn(C)c2CNC(=O)O[C@H](C)C2CC2)ccc1O[C@H]1CCC[C@H](C(=O)O)C1 [Example 167, (1S,3S)-3-((6-(5-(((((R)-1-cyclo-propylethoxy)carbonyl)amino)methyl)-1-methyl-1H-1,2,3-triazol-4-yl)-2-methylpyridin-3-yl)oxy)cyclohexane-1-carboxylic acid]",427
4,"Cc1nc(-c2nnn(C)c2CNC(=O)OC2CC(C)(C)C2)ccc1O[C@H]1CCC[C@H](C(=O)O)C1 [Example 168, (1S,3S)-3-((6-(5-((((3,3-dimethyl-cyclobutoxy)carbonyl)amino)methyl)-1-methyl-1H-1,2,3-triazol-4-yl)-2-methylpyridin-3-yl)oxy)cyclo-hexane-1-carboxylic acid]",90
5,"Cc1nc(-c2nnn(C)c2CNC(=O)OCCCC(F)(F)F)ccc1O[C@H]1CCC[C@H](C(=O)O)C1 [Example 169, (1S,3S)-3-((2-methyl-6-(1-methyl-5-((((4,4,4-trifluorobutoxy)carbonyl)amino)methyl)-1H-1,2,3-triazol-4-yl)pyridin-3-yl)oxy)cyclohexane-1-carboxylic acid]",55
6,"Cc1nc(-c2nnn(C)c2CNC(=O)O[C@H](C)C(C)C)ccc1O[C@H]1CCC[C@H](C(=O)O)C1 [Example 170, (1S,3S)-3-((2-methyl-6-(1-methyl-5-((((((R)-3-methylbutan-2-yl)oxy)carbonyl)amino)methyl)-1H-1,2,3-triazol-4-yl)pyridin-3-yl)oxy)cyclohexane-1-carboxylic acid]",92
7,"CCC[C@@H](C)OC(=O)NCc1c(-c2ccc(O[C@H]3CCC[C@H](C(=O)O)C3)c(C)n2)nnn1C [Example 171, (1S,3S)-3-((2-methyl-6-(1-methyl-5-((((((R)-pentan-2-yl)oxy)carbonyl)amino)methyl)-1H-1,2,3-triazol-4-yl)pyridin-3-yl)oxy)cyclohexane-1-carboxylic acid]",76
8,"CC[C@@H](C)OC(=O)NCc1c(-c2ccc(O[C@H]3CCC[C@H](C(=O)O)C3)c(C)n2)nnn1C [Example 172, (1S,3S)-3-((6-(5-((((R)-sec-butoxycarbonyl)amino)methyl)-1-methyl-1H-1,2,3-triazol-4-yl)-2-methyl-pyridin-3-yl)oxy)cyclohexane-1-carboxylic acid]",152
9,"Cc1nc(-c2nnn(C)c2CNC(=O)O[C@@H](C)C(C)C)ccc1O[C@H]1CCC[C@H](C(=O)O)C1 [Example 173, (1S,3S)-3((2-methyl-6-(1-methyl-5-((((((S)-3-methylbutan-2-yl)oxy)carbonyl)amino)methyl)-1H-1,2,3-triazol-4-yl)pyridin-3-yl)oxy)cyclohexane-1-carboxylic acid]",167
10,"Cc1nc(-c2nnn(C)c2CNC(=O)O[C@@H](C)C(F)(F)F)ccc1O[C@H]1CCC[C@H](C(=O)O)C1 [Example 174, (1S,3S)-3-((2-methyl-6-(1-methyl-5-((((((S)-1,1,1-trifluoropropan-2-yl)oxy)carbonyl)amino)methyl)-1H-1,2,3-triazol-4-yl)pyridin-3-yl)oxy)cyclohexane-1-carboxylic acid]",101
11,"CC[C@H](C)OC(=O)NCc1c(-c2ccc(O[C@H]3CCC[C@H](C(=O)O)C3)c(C)n2)nnn1C [Example 175, (1S,3S)-3-((6-(5-((((S)-sec-butoxy-carbonyl)amino)methyl)-1-methyl-1H-1,2,3-triazol-4-yl)-2-methyl-pyridin-3-yl)oxy)cyclohexane-1-carboxylic acid]",95
12,"Cc1nc(-c2nnn(C)c2CNC(=O)O[C@@H](C)C2CC2)ccc1O[C@H]1CCC[C@H](C(=O)O)C1 [Example 176, (1S,3S)-3-((6-(5-(((((S)-1-cyclo-propylethoxy)carbonyl)amino)methyl)-1-methyl-1H-1,2,3-triazol-4-yl)-2-methylpyridin-3-yl)oxy)cyclo-hexane-1-carboxylic acid]",106
13,"Cc1nc(-c2nnn(C)c2CNC(=O)OC2CCC2)ccc1O[C@H]1CCC[C@H](C(=O)O)C1 [Example 177, (1S,3S)-3-((6-(5-(((cyclobutoxycarbonyl)amino)methyl)-1-methyl-1H-1,2,3-triazol-4-yl)-2-methyl-pyridin-3-yl)oxy)cyclohexane-1-carboxylic acid]",148
14,"Cc1nc(-c2nnn(C)c2CNC(=O)OC2CC(F)(F)C2)ccc1O[C@H]1CCC[C@H](C(=O)O)C1 [Example 178, (1S,3S)-3-((6-(5-((((3,3-difluoro-cyclobutoxy)carbonyl)amino)methyl)-1-methyl-1H-1,2,3-triazol-4-yl)-2-methylpyridin-3-yl)oxy)cyclo-hexane-1-carboxylic acid]",102
15,"Cc1nc(-c2nnn(C)c2CNC(=O)OCC2CC2C)ccc1O[C@H]1CCC[C@H](C(=O)O)C1 (stereo partly drawn) [Example 179, (1S,3S)-3((2-methyl-6-(1-methyl-5-(((((2-methylcyclopropyl)methoxy)carbonyl)amino)methyl)-1H-1,2,3-triazol-4-yl)pyridin-3-yl)oxy)cyclohexane-1-carboxylic acid]",46
16,"Cc1nc(-c2nnn(C)c2CNC(=O)OCC(C)CC(F)F)ccc1O[C@H]1CCC[C@H](C(=O)O)C1 (stereo partly drawn) [Example 196, (1S,3S)-3-((6-(5-((((4,4-difluoro-2-methylbutoxy)carbonyl)amino)methyl)-1-methyl-1H-1,2,3-triazol-4-yl)-2-methylpyridin-3-yl)oxy)cyclo-hexane-1-carboxylic acid]",83
17,"Cc1nc(-c2nnn(C)c2CNC(=O)OCCC(C)(F)F)ccc1O[C@H]1CCC[C@H](C(=O)O)C1 [Example 202, (1S,3S)-3-((6-(5-((((3,3-difluorobutoxy)carbonyl)amino)methyl)-1-methyl-1H-1,2,3-triazol-4-yl)-2-methylpyridin-3-yl)oxy) cyclo-hexane-1-carboxylic acid]",86
18,"Cc1nc(-c2nnn(C)c2CN(C)C(=O)OCC(C)C)ccc1O[C@H]1CCC[C@H](C(=O)O)C1 [Example 203, (1S,3S)-3-((6-(5-(((isobutoxy-carbonyl)(methyl)amino)methyl)-1-methyl-1H-1,2,3-triazol-4-yl)-2-methylpyridin-3-yl)oxy)cyclo-hexane-1-carboxylic acid]",91

# Further lines, results first:
row,IC50 [nM],Structure (SMILES)
1,96,"Cc1nc(-c2nnn(C)c2CNC(=O)OCCC(F)(F)F)ccc1O[C@H]1CCC[C@H](C(=O)O)C1 [Example 181, (1S,3S)-3-((2-methyl-6-(1-methyl-5-((((3,3,3-trifluoropropoxy)carbonyl)amino)methyl)-1H-1,2,3-triazol-4-yl)pyridin-3-yl)oxy)cyclohexane-1-carboxylic acid]"
2,85,"Cc1nc(-c2nnn(C)c2CNC(=O)OCC2CC(F)(F)C2)ccc1O[C@H]1CCC[C@H](C(=O)O)C1 [Example 182, (1S,3S)-3-((6-(5-(((((3,3-difluoro-cyclobutyl)methoxy)carbonyl)amino)methyl)-1-methyl-1H-1,2,3-triazol-4-yl)-2-methylpyridin-3-yl)oxy)cyclohexane-1-carboxylic acid]"
3,41,"Cc1nc(-c2nnn(C)c2CNC(=O)OCC(C)C2CC2)ccc1O[C@H]1CCC[C@H](C(=O)O)C1 (stereo partly drawn) [Example 184, (1S,3S)-3-((6-(5-((((2-cyclopropylpropoxy)carbonyl)amino)methyl)-1-methyl-1H-1,2,3-triazol-4-yl)-2-methylpyridin-3-yl)oxy)cyclo-hexane-1-carboxylic acid]"
4,72,"Cc1nc(-c2nnn(C)c2CNC(=O)OCCC2(C)CC2)ccc1O[C@H]1CCC[C@H](C(=O)O)C1 [Example 195, (1S,3S)-3((2-methyl-6-(1-methyl-5-((((2-(1-methylcyclopropyl)ethoxy)carbonyl)amino)methyl)-1H-1,2,3-triazol-4-yl)pyridin-3-yl)oxy)cyclohexane-1-carboxylic acid]"
5,16,"Cc1nc(-c2nnn(C)c2CNC(=O)OCCC(C)C)ccc1O[C@H]1CCC[C@H](C(=O)O)C1 [Example 197, (1S,3S)-3-((6-(5-((((isopentyloxy)carbonyl)amino)methyl)-1-methyl-1H-1,2,3-triazol-4-yl)-2-methyl-pyridin-3-yl)oxy)cyclohexane-1-carboxylic acid]"
6,45,Cc1nc(-c2nnn(C)c2CNC(=O)OCC(F)(F)C(F)(F)F)ccc1O[C@H]1CCC[C@H](C(=O)O)C1 [Example 198]
7,312,"CC(=O)CCCOC(=O)NCc1c(-c2ccc(O[C@H]3CCC[C@H](C(=O)O)C3)c(C)n2)nnn1C [Example 199, (1S,3S)-3((2-methyl-6-(1-methyl-5-(((((4-oxopentyl)oxy)carbonyl)amino)methyl)-1H-1,2,3-triazol-4-yl)pyridin-3-yl)oxy)cyclohexane-1-carboxylic acid]"
8,42,"Cc1nc(-c2nnn(C)c2CNC(=O)OC2CC3(CC3)C2)ccc1O[C@H]1CCC[C@H](C(=O)O)C1 [Example 201, (1S,3S)-3-((2-methyl-6-(1-methyl-5-((((spiro[2.3]hexan-5-yloxy)carbonyl)amino)methyl)-1H-1,2,3-triazol-4-yl)pyridin-3-yl)oxy)cyclohexane-1-carboxylic acid]"
